Usually IC50 stands for the midpoint of a concentration-inhibition curve. Read a low IC50 as higher potency. For orientation: EC50 means the concentration needed to bring the measured effect to its halfway point.

The source made the active and inactive calls. No cut-off for these calls is given here.

Five compounds from ChEMBL document CHEMBL4368877, “Discovery of potent pyruvate dehydrogenase kinase inhibitors and evaluation of their anti-lung cancer activity under hypoxia” (Medchemcomm, 2018) can be followed below.

The target in data set [1] is [Pyruvate dehydrogenase (acetyl-transferring)] kinase isozyme 4, mitochondrial (Homo sapiens, UniProt Q16654). Briefly: Inhibition of PDK4 (unknown origin) using PDC E1 as substrate measured after 30 mins by kinase-glo assay.
Data set [2] relates to NCI-H1975. As to the kind of experiment: Cytotoxicity against human NCI-H1975 cells assessed as reduction in cell proliferation at 1 to 10 uM after 72 hrs under normoxic condition by MTT assay. The settings on record: nci-h1975, 72 h. Format: cell-based. On the technique in general: Tetrazolium assays rely on reduction of a dye to a coloured formazan, in cell work by metabolically active cells.

Data set [3] deals with [Pyruvate dehydrogenase (acetyl-transferring)] kinase isozyme 2, mitochondrial (Homo sapiens, UniProt Q15119). Briefly: Inhibition of PDK2 (unknown origin) using PDC E1 as substrate measured after 30 mins by kinase-glo assay. For orientation: In Kinase-Glo more light means more ATP remaining.
Data set [4] deals with [Pyruvate dehydrogenase (acetyl-transferring)] kinase isozyme 1, mitochondrial (Homo sapiens, UniProt Q15118). As to the kind of experiment: Inhibition of PDK1 (unknown origin) using PDC E1 as substrate measured after 30 mins by kinase-glo assay.
Data set [5] concerns the target [Pyruvate dehydrogenase (acetyl-transferring)] kinase isozyme 3, mitochondrial (Homo sapiens, UniProt Q15120). Briefly: Inhibition of PDK3 (unknown origin) using PDC E1 as substrate measured after 30 mins by kinase-glo assay.
Data set [6] relates to NCI-H1975. Briefly: Cytotoxicity against human NCI-H1975 cells assessed as reduction in cell proliferation after 72 hrs under hypoxic condition by MTT assay. The settings on record: NCI-H1975, 72 h.
Data set [7] has as its target Pyruvate dehydrogenase kinase (Homo sapiens) (UniProt Q15119+Q15120+Q16654+Q15118). Briefly: Inhibition of PDK in human NCI-H1975 cells assessed as reduction in PDC phosphorylation at 10 uM measured after 12 hrs under hypoxic condition by Western blot analysis. Format: cell-based.

[Pyruvate dehydrogenase (acetyl-transferring)] kinase isozyme 3, mitochondrial, sequence (Q15120 whole entry): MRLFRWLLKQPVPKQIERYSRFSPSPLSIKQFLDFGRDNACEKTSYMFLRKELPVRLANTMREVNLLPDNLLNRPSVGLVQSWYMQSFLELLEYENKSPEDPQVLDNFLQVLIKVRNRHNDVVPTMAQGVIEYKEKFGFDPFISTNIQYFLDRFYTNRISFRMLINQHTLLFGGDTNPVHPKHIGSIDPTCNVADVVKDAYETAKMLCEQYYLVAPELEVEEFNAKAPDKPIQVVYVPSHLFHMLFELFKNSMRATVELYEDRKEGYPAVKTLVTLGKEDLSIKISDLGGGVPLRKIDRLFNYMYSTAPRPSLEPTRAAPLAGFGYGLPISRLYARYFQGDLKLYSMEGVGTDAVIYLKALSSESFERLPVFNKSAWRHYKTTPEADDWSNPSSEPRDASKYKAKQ
[Pyruvate dehydrogenase (acetyl-transferring)] kinase isozyme 4, mitochondrial, sequence (Q16654 whole entry): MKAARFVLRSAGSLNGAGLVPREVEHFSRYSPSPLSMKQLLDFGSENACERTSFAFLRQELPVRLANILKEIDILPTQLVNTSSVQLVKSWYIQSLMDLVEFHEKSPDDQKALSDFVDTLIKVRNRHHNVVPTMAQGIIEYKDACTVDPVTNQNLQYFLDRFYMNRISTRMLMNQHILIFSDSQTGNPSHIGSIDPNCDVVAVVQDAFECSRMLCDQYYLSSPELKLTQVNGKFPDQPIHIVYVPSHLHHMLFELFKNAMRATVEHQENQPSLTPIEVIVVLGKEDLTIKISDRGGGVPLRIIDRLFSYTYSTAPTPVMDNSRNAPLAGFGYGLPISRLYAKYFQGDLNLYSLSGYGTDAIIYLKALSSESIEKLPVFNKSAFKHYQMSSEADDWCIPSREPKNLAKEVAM
[Pyruvate dehydrogenase (acetyl-transferring)] kinase isozyme 1, mitochondrial, sequence (Q15118 whole entry): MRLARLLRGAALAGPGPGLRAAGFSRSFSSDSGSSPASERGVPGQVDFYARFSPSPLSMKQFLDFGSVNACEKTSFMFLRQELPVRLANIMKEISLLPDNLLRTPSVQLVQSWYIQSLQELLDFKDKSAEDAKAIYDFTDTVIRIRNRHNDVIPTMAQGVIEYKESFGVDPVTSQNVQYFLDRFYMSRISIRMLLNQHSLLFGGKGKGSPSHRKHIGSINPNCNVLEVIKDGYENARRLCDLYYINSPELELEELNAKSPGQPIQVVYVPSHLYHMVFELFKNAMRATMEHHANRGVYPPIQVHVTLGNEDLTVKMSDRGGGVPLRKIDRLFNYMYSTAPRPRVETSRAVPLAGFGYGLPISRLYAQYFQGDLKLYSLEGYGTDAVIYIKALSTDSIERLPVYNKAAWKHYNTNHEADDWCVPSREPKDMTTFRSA

For the compound `CN(C)CCCn1ccnc1[C@H]1CCCN(C(=O)c2ccc3cc[nH]c3c2)C1`, the IC50 in data set [1] turned out to be 12.3 µM; in data set [3], 2.5 µM; in data set [4] it was 1.26 µM; in data set [5], 7.8 µM. Also, the Activity entry in data set [2] is “Non-Toxic”.

Consider `Cc1cnc(Cl)nc1-c1ccc(N(Cc2ccc(CNC(=O)C(F)F)cc2)C(=O)c2ccc(O)cc2O)cc1`, for which the Activity result in data set [2] is recorded as “Non-Toxic”.

For `O=C(NCc1ccccc1-n1cccn1)c1cc(-c2ccccc2O)n[nH]1`, the EC50 in data set [6] was 4.28 µM. Besides, the IC50 in data set [1] stood at 8.7 µM; in data set [3], 2.6 µM; in data set [4] it was 0.62 µM; in data set [5], 4.8 µM. Moreover, the Activity entry in data set [2] is “Non-Toxic”.

`O=C(c1ccccc1)C(Cl)Cl`: the inhibition result in data set [7] was “Active”.

On to `OCCOc1ccc(CN2CCN(Cc3ccc(F)c(F)c3)[C@@H](CCO)C2)cc1`, for which the IC50 came out at 6.8 µM in data set [1], 1.5 µM in data set [3] and 3.9 µM in data set [5]. In addition, the Activity result in data set [2] is listed as “Non-Toxic”.
